Assay [1] concerns XDR-MTB (Extensively drug-resistant Mycobacterium tuberculosis). The assay can be described thus: microbe, parasite or virus in culture. It counts as cell-based. The following applies: 192 h, read-out: MIC (μg/mL) XDR-MTB.
Assay [2] concerns MDR-MTB (Multidrug-resistant Mycobacterium tuberculosis). The assay can be described thus: microbe, parasite or virus in culture. The format is cell-based. The note with it: 192 h, read-out: MIC (μg/mL) MDR-MTB.

Among the data in patent US11807640B1 (priority 2023, dated 2023) are MIC values, retold here.

Structures are written as SMILES. ≈ marks a conversion by molar mass, not a printed value.

On to `COC(=O)c1c(C(=O)OC)c2cc(C(=O)OC(C)C)ccn2c1C(=O)c1ccc(Br)cc1` [KNV-7, 7-Isopropyl 1,2-dimethyl 3-(4-bromobenzoyl)indolizine-1,2,7-tricarboxylate], for which the MIC in assay [1] and in assay [2] was 8 µg/mL (≈ 15.9 µM) throughout.

Regarding `CCOC(=O)c1cc(C(=O)c2ccc(F)cc2)n2ccc(C(=O)OC(C)C)cc12` [KNV-4, 1-Ethyl 7-isopropyl 3-(4-fluorobenzoyl)indolizine-1,7-dicarboxylate], the MIC was 32 µg/mL (≈ 80.5 µM) in assay [1] and 4 µg/mL (≈ 10.1 µM) in assay [2].
